Molecules are shown by their SMILES.

The text below walks through data of article PMC12933331, “A Cryptic Pocket Allosterically Modulates Oligosaccharide Binding to DC-SIGN” (JACS Au, 2026).

Experiment [1] concerns the target T1, DC-SIGN ECD M270F (Homo sapiens, UniProt Q9NNX6, M270F).
T1 construct: acids 64 -404 of DC -SIGN; made in house
T1 sequence (Q9NNX6 64-404 M270F): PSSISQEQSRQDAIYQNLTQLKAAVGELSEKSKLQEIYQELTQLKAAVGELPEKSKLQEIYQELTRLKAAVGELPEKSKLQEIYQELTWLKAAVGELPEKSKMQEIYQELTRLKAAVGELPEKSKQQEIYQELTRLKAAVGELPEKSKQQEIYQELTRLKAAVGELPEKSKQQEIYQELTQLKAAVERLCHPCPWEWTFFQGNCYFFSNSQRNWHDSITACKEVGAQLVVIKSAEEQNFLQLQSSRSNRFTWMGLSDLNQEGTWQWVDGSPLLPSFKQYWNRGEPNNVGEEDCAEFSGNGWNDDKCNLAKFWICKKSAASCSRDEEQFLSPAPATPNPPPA
As to the kind of experiment: Plate-based horseradish peroxidase assay. The experiment is classed as binding. Conditions: constant HRP concentration (1 µg mL-1); read-out: EC50 (mean ± SD), CaCl2 titration. On the procedure: (§1) chromatography. Purified protein was dialyzed against 25 mM HEPES, 150 mM NaCl, 10 mM CaCl2, pH 7.4, concentrated using a centrifugal spin filter, snap frozen and then stored at -80°C. […]
(§2) Plate-based horseradish peroxidase assay
(§3) General remarks. Unless stated otherwise, all reagents and buffers were obtained from Sigma Aldrich or Carl Roth. Measurements were done on a Enspire Multimode Plate Reader (PerkinElmer). GraphPad Prism was used for all data processing and analysis.
(§4) CaCl2 titration. 100 µg mL-1 DC-SIGN ECD were immobilized in immobilization buffer (25 mM HEPES, 150 mM NaCl, 25 mM CaCl 2, pH 7.4) overnight at 4°C on transparent Nunc Maxisorp 96-well plates (Thermo Fisher). Protein solution was removed, and plates were washed three times with immobilization buffer and then blocked for 2 hours at 4°C with blocking buffer (25 mM HEPES, 150 mM NaCl, 25 mM CaCl 2, 2% BSA, 0.01% Tween -20). Plates were washed twice with 25 mM HEPES, 150 mM NaCl, 5 mM EDTA, pH 7.4 and twice with 25 mM HEPES, 150 mM NaCl, pH 7.4 to remove residual Ca 2+. To titrate Ca2+, CaCl2 in 25 mM HEPES, 150 mM NaCl, pH 7.4 was serially diluted on the plate at a constant HRP concentration of 1 µg mL-1 and then incubated at RT for 2 hours. Following incubation, plates were washed three times with 25 mM HEPES, 150 mM NaCl, pH 7.4 and bound HRP was detected using a TMB substrate kit (Thermo Fisher) and 0.18 M H2SO4 according to manufacturer’s instructions. Absorption was […]
(§5) HRP titration. Immobilization and blocking were done as described above. After blocking, plates were washed three times with immobilization buffer. HRP in immobilization buffer was serially diluted on the plate at a constant concentration CaCl2 concentration of 25 mM and then incubated […]
(§6) at RT for 2 hours. Following incubation, plates were washed three times with immobilization buffer and HRP was detected as described above.
(§7) Immobilization and blocking were done as described above. After blocking, plates were washed three times with immobilization buffer. Mannose in immobilization buffer containing 1 µg mL-1 HRP was serially diluted on the plate and then incubated at RT for 2 hours.
(§8) Following incubation, plates were washed three times with immobilization buffer and HRP was detected as described above.
(§9) All conditions were measured in technical triplicates, averaged and normalized to the control well […]
(§10) IC50 and EC50 values and hill […]
(§11) slopes (nH) were obtained in a four-parameter fit according to equation (1).
(§12) Y = bottom + top − bottom (1)
(§13) With bottom and top representing the minimal and maximal response plateaus, respectively, Y as the observed response and X the logarithmic concentration of the ligand . […]
(§14) Biosynth. Spectra were processed in TopSpin 4.2.0 and data analysis was performed using CCPN Analysis 3.2.0 for 2D spectra and in MestreNova for 1D spectra.2 Further analysis was done using GraphPad Prism and in-house python scripts.

Experiment [2] addresses T2, DC-SIGN ECD wildtype (Homo sapiens, UniProt Q9NNX6).
T2 construct: acids 64 -404 of DC -SIGN; made in house
T2 sequence (Q9NNX6 64-404): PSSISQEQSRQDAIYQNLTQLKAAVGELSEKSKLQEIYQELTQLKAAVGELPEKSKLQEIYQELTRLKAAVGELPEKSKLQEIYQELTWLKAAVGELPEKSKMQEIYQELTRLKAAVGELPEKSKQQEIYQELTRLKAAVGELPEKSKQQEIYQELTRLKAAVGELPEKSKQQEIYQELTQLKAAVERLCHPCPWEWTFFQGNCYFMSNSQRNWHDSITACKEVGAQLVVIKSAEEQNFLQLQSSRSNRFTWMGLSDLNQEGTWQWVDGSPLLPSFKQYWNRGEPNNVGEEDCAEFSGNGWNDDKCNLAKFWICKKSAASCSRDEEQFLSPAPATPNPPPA
Briefly: Plate-based horseradish peroxidase assay. The experiment is classed as binding. Conditions: constant HRP concentration (1 µg mL-1); read-out: EC50 (mean ± SD), CaCl2 titration. As for the experimental part:
as §1, §2, §3, §4, §5, §6, §7, §8, §9, §10, §11, §12, §13, §14

In experiment [3] the target is T3, DC-SIGN ECD T314A (Homo sapiens, UniProt Q9NNX6, T314A).
T3 construct: acids 64 -404 of DC -SIGN; made in house
T3 sequence (Q9NNX6 64-404 T314A): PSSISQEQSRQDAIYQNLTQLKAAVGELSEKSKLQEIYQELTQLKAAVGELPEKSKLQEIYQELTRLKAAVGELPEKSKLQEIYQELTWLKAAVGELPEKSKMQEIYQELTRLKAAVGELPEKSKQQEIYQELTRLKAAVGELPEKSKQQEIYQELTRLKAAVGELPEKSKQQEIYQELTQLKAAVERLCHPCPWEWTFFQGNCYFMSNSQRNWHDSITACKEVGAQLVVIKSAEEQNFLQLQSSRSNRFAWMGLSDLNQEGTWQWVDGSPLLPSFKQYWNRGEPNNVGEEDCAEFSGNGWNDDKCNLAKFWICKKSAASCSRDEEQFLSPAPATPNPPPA
As to the kind of experiment: Plate-based horseradish peroxidase assay. The experiment is classed as binding. Conditions: constant HRP concentration (1 µg mL-1); read-out: EC50 (mean ± SD), CaCl2 titration.
Protocol: Immobilization and blocking were done as described above. After blocking, plates were washed three times with immobilization buffer. containing 1 µg mL-1 HRP was serially diluted on the plate and then incubated at RT for 2 hours.

The target in experiment [4] is T1, DC-SIGN ECD M270F. Briefly: 19F R2-filtered NMR reporter assay, CaCl2 titration. Conditions: binding of 0.1 mM ManNAcF3 reporter, R2,obs. As for the experimental part:
(§15) 19F R2-filtered NMR reporter displacement assay. The 19F R2-filtered NMR reporter displacement assay was adjusted for CaCl2 titrations with DC-SIGN ECD as previously described.1 Apparent transverse relaxation rates R2,obs were obtained using the CPMG pulse sequence with a relaxation delay d1 of 2.0 s, acquisition time tacq of 0.8 s and a CPMG frequency νCPMG of 500 Hz.
(§16) DC-SIGN ECD was dialyzed four times against 25 mM HEPES, 150 mM NaCl (pH 7.4) to remove Ca2+ prior to measurements. Samples contained 25 μM DC-SIGN ECD in 25 mM HEPES, 150 mM NaCl (pH 7.4) supplemented with 10% D2O and 0.1 mM of the ManNAcF3 reporter molecule.
(§17) TFA at a concentration of 0.1 mM served as an internal reference. 512 scans were recorded to ensure sufficient signal to noise ratios. R2,obs values were obtained by fitting equation 5 to integrals I of the 19F resonance of the reporter at different relaxation times T with I0 as integral at T = 0 s. […]

The target in experiment [5] is T3, DC-SIGN ECD T314A. The experiment is described as above. Conditions: binding of 0.1 mM ManNAcF3 reporter, R2,obs. As for the experimental part:
as §15, §16, §17

The target in experiment [6] is T2, DC-SIGN ECD wildtype. The description is as above. Conditions: binding of 0.1 mM ManNAcF3 reporter, R2,obs. As for the experimental part: as §15, §16, §17
The target in a further experiment is T4, DC-SIGN CRD M270F (Homo sapiens, UniProt Q9NNX6, M270F).
T4 construct: acids 253-404 of DC-SIGN; His-tag (N); made in house
T4 sequence (Q9NNX6 253-404 M270F): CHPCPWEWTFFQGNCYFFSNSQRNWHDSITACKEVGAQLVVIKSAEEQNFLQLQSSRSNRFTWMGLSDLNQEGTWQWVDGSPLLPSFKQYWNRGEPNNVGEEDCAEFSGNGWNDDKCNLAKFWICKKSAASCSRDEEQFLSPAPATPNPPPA
As to the kind of experiment: 1H-15N HSQC NMR titration (CSP fitting). The experiment is classed as binding. On the procedure: (§18) 1H-15N HSQC NMR. 1H-15N HSQC NMR spectra were collected with 256 increments in the nitrogen and 24 scans per increment and 2048 points in the direct dimension. The relaxation delay d1 was set to 1.0 s. The W5 WATERGATE pulse sequence was used for solvent suppression.3, 4 Experiments were performed at a CRD concentration of 200 μM in 20 mM MES, 40 mM NaCl, 10 mM CaCl2 (pH 6.0) supplemented with 10% D 2O and, if applicable, varying concentrations of ligands. Samples of apo DC -SIGN CRD were prepared as described for 1H-13C HSQC NMR experiments. A previously published resonance assignment of DC-SIGN CRD was transferred to the nearest neighbor in a reference spectrum recorded without ligand.5 Unassigned, overlapping or disappearing peaks were not assigned.
(§19) CSPs induced by mutations or ligands were calculated as previously described according to […]
(§20) The empirical weighing factor a was set to 0.15 for all calculations.
(§21) Dissociation constants (K Ds) were determined in titration experiments at five ligand concentratio ns […]
(§22) in the fast exchange regime were used for the fitting procedure via equation 4 in a global two - […]
(§23) with CSP max corresponding to the CSP values upon saturation and the bound protein fraction p b […]
(§24) CHESPA was performed as previously described .7 The chemical shift vector between apo and holo wildtype DC -SIGN CRD was used as reference perturbation to calculate the vector product to […]

The target in another experiment is T5, DC-SIGN CRD T314A (Homo sapiens, UniProt Q9NNX6, T314A).
T5 construct: acids 253-404 of DC-SIGN; His-tag (N); made in house
T5 sequence (Q9NNX6 253-404 T314A): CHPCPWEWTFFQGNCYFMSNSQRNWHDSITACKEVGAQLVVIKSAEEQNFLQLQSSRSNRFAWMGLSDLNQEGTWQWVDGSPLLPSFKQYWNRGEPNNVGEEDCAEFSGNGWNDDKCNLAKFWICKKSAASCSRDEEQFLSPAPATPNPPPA
As to the kind of experiment: 1H-15N HSQC NMR titration (CSP fitting). Conditions: Lewis X titration, three concentrations, saturation not reached (estimated). The format is binding. On the procedure: as §18, §19, §20, §21, §22, §23, §24

A further experiment addresses T6, DC-SIGN CRD wildtype (Homo sapiens, UniProt Q9NNX6).
T6 construct: acids 253-404 of DC-SIGN; His-tag (N); made in house
T6 sequence (Q9NNX6 253-404): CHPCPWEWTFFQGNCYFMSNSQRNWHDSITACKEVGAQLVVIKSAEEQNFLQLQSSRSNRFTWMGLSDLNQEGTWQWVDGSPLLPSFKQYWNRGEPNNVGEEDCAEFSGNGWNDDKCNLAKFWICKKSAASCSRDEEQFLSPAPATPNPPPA
As to the kind of experiment: 1H-15N HSQC NMR titration (CSP fitting). The format is binding. On the procedure:
as §18, §19, §20, §21, §22, §23, §24

Where [7] appears, read: Lewis X titration, three concentrations, saturation not reached (estimated).

On to `[Ca+2].[Cl-].[Cl-]` [CaCl2], for which the EC50 was determined as 700 ± 200 µM at DC-SIGN ECD M270F [1]; 1000 ± 400 µM on DC-SIGN ECD wildtype [2]; 1200 ± 300 µM on DC-SIGN ECD T314A [3]; 200 µM at DC-SIGN ECD M270F [4] (25 μM ECD); 600 µM on DC-SIGN ECD T314A [5] (25 μM ECD); 300 µM at DC-SIGN ECD wildtype [6] (25 μM ECD). Further, the “hill slope, CaCl2 titration” value stood at 1.4 on DC-SIGN ECD M270F [4], 1.7 on DC-SIGN ECD T314A [5] and 2.0 at DC-SIGN ECD wildtype [6].

One may read the Kd as the equilibrium constant for the complex coming apart. Consider `CC(=O)N[C@H]1C(O)O[C@H](CO)[C@@H](O[C@@H]2O[C@H](CO)[C@H](O)[C@H](O)[C@H]2O)[C@@H]1O[C@@H]1O[C@@H](C)[C@@H](O)[C@@H](O)[C@@H]1O` (some centres unmarked) [Lewis X, Lewis X trisaccharide], for which the Kd on DC-SIGN CRD M270F (setting [7]) is 600 ± 200 µM; on DC-SIGN CRD T314A it was 1400 ± 100 µM; at DC-SIGN CRD wildtype (setting [7]), 1100 ± 200 µM.

For `Oc1ccccc1` [phenol], the “CSPs on addition of phenol” value on DC-SIGN CRD M270F (20 mM phenol, holo CRD, compared with wildtype) is recorded as “drastically reduced CSPs”; on DC-SIGN CRD wildtype (20 mM phenol, holo 15N-labeled CRD, residues of cryptic pocket and upper cavity) it was “strong chemical shift perturbations”.
